Assay results reported in US6723702B2, “Use of relaxin treat diseases related to vasoconstriction” (RAS Medical, Inc., priority 2000, dated 2004).

How the values were obtained:
conscious rats = assay: Acute infusion of L-NAME during chronic infusion of purified porcine RLX; format: in vivo, rat
Protocol: At least 7 days after the implantation of vascular and bladder catheters, osmotic minipumps containing either porcine RLX (4 μg/hour) or vehicle (Ringer's solution) were implanted in intact, female rats (n=7 and 6 rats, respectively). Renal function and MAP were measured on day 5 of relaxin infusion (three 30-minute urine and midpoint blood collections). Next, an infusion of L-NAME (2 μg/minute, a substrate competitive inhibitor of NO synthase) was administered intravenously (i.v.) by infusion pump (Model 200, KD Scientific, Boston, Mass.). Four 1-hour urine collections with midpoint blood samples were collected for the assessment of GFR, ERPF, and ERVR during the L-NAME administration. Identical procedures were performed on additional animals chronically administered porcine RLX (n=5) or vehicle (n=5), except that ANG II (3 ng/minute) was infused rather than L-NAME. Finally, another four, age-matched control rats were administered Ringer's solution instead of either L-NAME or ANG II on day 5 of porcine RLX infusion.
MAP, GFR, ERPF, and ERVR were measured at time zero (baseline), and at 60, 120, 180, and 240 minutes after administering L-NAME and either RLX or vehicle alone. Values represent the mean±SEM. L-NAME (Nω-nitro-L-arginine methyl ester) was infused at 2 μg/minute intravenously, and relaxin was administered at 4 μg/hour by osmotic minipump subcutaneously. There were 7 and 6 rats, respectively, in the RLX and vehicle groups. An asterisk denotes p<0.05; the symbol H denotes p<0.05 for RLX vs. vehicle.

db/db mice = assay: Full thickness wound healing in db/db mice; format: in vivo, mouse; conditions: PDGF 5 μg/wound/day for 5 days
Protocol: To determine whether rhRlx would improve healing in this model of impaired healing, standardized full thickness (1.5 cm×1.5 cm) wounds were made on the back of db/db mice (Jackson Laboratories, Bar Harbor, Me.). Mice were treated continuously for 21 days with rhRlx via a subcutaneously implanted Alzet pump at a dose of either 0.1 mg/kg/day or 0.2 mg/kg/day. Wound areas were measured in the course of the study. Healing is presented as wound area on day 14 relative to the original size of the wound on day 0 and is calculated as: % of original wound area=[Area on day 14/area on day 0]×100. […] Wound closure was expressed as “% of original wound area.” There were 8-20 animals per group. Wound closure was 91.4% in control group vs. 64% in the relaxin-treated group (p<0.05 by Student-Newman-Kuels test). The differences in the extent of wound healing were small among vehicle control and low dose of rhRlx treatment as well as PDGF (5 μg/wound/day for 5 days) treated mice.
At day 21-post surgery, the wounds were also excised and fixed in formalin prior to paraffin embedding. Sections from the middle of the wound were stained with Masson's trichrome and evaluated by two investigators. […] Inflammatory cell accumulation was present at the wound edges.
Neovascularization is a key component of granulation tissue formation. New blood vessel formation is stimulated by a variety of growth factors including bFGF, and VEGF. […] Immunohistochemical staining of the midsection of full thickness wounds using polyclonal antibody to von Willebrand factor VIII-related antigen was used to identify new blood vessels in the wounds.

[1] = system: Rat aortic adventitial fibroblasts; assay: Collagen and fibronectin expression by adventitial fibroblasts; format: cell-based
Protocol: Aortic adventitial fibroblasts from normal adult Sprague/Dawley rats were explanted by carefully dissecting the adventitia away from the media and culturing 1 mm^3 pieces in Dulbecco's modified Eagles Medium (DMEM), plus 10% bovine fetal calf serum. When cultures were confluent, fibroblasts were dispersed with trypsin and passaged once prior to use in experiments. Fibroblasts were seeded at 10^5 cells/cm^2 in DMEM+10% FBS in 48-well plates for experiments and assayed for collagen and fibronectin expression, as previously described (Unemori et al. (1996) J. Clin. Invest. 98:2739-2745). […] Half of the cultures were also treated simultaneously with 10 ng/ml of rhRlx. Proteins were biosynthetically labeled with ^3H-proline (25 μCi/ml) (Amersham Corp., Arlington Heights, Ill.), in the presence of ascorbate (50 μg/ml) and β-aminopropionitrile (80 μg/ml), and conditioned media collected 24 hours later. Media were electrophoresed on SDS-PAGE, and the density of collagen and fibronectin bands was determined by densitometric scanning using a digital imaging system (Alpha Innotech Corp, San Leandro, Calif.).

COC(=O)[C@@H](N)CCCNC(=N)N[N+](=O)[O-] [L-NAME, Nω-nitro-L-arginine methyl ester, reference compound]
renal vasodilation and hyperfiltration in the relaxin-treated rats (conscious rats; day 5 of porcine RLX infusion, L-NAME 2 μg/minute i.v.): completely abrogated | rise in MAP and ERVR, and reduction in GFR and ERPF (conscious rats; relaxin-treated compared to vehicle infused rats): significantly greater

PDGF [reference compound]
differences in the extent of wound healing vs vehicle control (db/db mice): small

TGF-β [reference compound]
expression of collagens, of control levels ([1]; TGF-β (20 ng/ml)): 484±67% | Fibronectin expression, of control levels ([1]; TGF-β treatment): 360±5%
